Results as given in patent publication US6833377B2, “Composition and method for potentiating drugs” (priority 2001, dated 2004).
“And” between values parts separate entries of the source, which are not always exact repeats. Equal values may be shown once. Read-outs that look alike come from different tables or passages of the source.

Assays:
[1] = tested on: phenaminic stereotypy; test: Phenaminic stereotypy (antipsychotic effect of haloperidol); format: in vivo, rats; details: haloperidol alone, phenamine 10 mg/kg IM
Procedure: (§1) Antipsychotic effect of neuroleptics was studied using the model of behavioral toxicity “MK-toxicity” caused by a blocker of NMDA receptors MK-801 (Lapin T. P., Rogawski M. A. Behav. Brain Res. (1995) 70(2):145-151) and a model of phenaminic stereotypy caused by phenamine (Kuczenski R., Schmidt D, Leith N. Brain Res. (1977), 126(1):117-129).
(§2) The minimal effective dose of the neuroleptic haloperidol necessary to completely prevent the development of “MK-toxicity” (MK-801 at a dose of 0.4 mg/kg IM) and phenaminic stereotypy (phenamine at a dose of 10 mg/kg IM) in 80% of the rats was calculated. To estimate the potentiation of the antipsychotic effect of haloperidol, the minimal effective dose of haloperidol in compositions, which completely prevents the development of MK-toxicity and phenaminic stereotypy in rats, was determined.

[2] = tested on: MK-toxicity; test: MK-toxicity (behavioral toxicity caused by MK-801); format: in vivo, rats; details: haloperidol alone, at this dose only ataxia eliminated, MK-toxicity only partially eliminated
Procedure: as §1, §2

[3] = tested on: phenaminic stereotypy; test: Potentiation of phenaminic stereotypy (psychostimulant effect of phenamine); format: in vivo, rats; details: phenamine + distilled water
Procedure: The potentiation of the effect of psychostimulants was studied using the model of phenaminic stereotypy [Kuczenski R., Schmidt D., Leith N. Brain Res. (1977), 126(1):117-29]. Phenamine at a dose of 10 mg/kg IM, or 20 mg/kg IG, causes a marked behavioral stereotypy. To estimate the potentiation effect of phenamine, a phenamine dose in the IM or IG introduced composition was determined, which causes the same stereotypy as phenamine alone at a dose of 10 mg/kg, IM or 20 mg/kg, IG.

[4] = tested on: catalepsy caused by haloperidol; test: Haloperidol catalepsy (inclined grid); format: in vivo, rats; details: for Minimal effective dose of memantine eliminating catalepsy (immobilization time on an inclined grid below 40 seconds), haloperidol 1 mg/kg / Minimal effective dose of memantine eliminating catalepsy (immobilization time on an inclined grid below 40 seconds), haloperidol 3 mg/kg: memantine alone; for Minimal effective dose of memantine eliminating catalepsy (immobilization time on an inclined grid below 40 seconds), haloperidol 3 mg/kg: catalepsy only partially eliminated at this dose (immobilization time 60-70 seconds)
Procedure: Haloperidol catalepsy is a test for selecting anti-parkinson agents [Campbell A., Baldessarini R. J. Cremens M. C. Neuropharmacology (1988), 27(11):1197-9; Ossowska K. J. Neural. Transm. Park. Dis. Dement. Sect. (1994) 8(1-2):39-71]. Catalepsy degree was estimated by the immobilization time (in sec) of a rat placed on a coarse-mesh grid at an angle of 45° during a 3-minute exposition [Campbell A., Baldessarini R. J., Cremens M. C. Neuropharmacology (1988) 27(11):1197-9 ] 30, 60, 90 and 120 minutes after haloperidol administration. Maximal catalepsy was attained in 40-60 minutes after haloperidol administration (immobilization time on the grid was 140-180 sec) and lasted from 2 to 6 hours depending on the dose of haloperidol (1 or 3 mg/kg). The minimal effective dose of the anti-parkinson agent memantine causing a maximal anticataleptic effect (immobilization time on an inclined grid less than 40 sec) 1 hour after haloperidol administration at a dose of 1 and 3 mg/kg was calculated.
To estimate the potentiation effect of memantine, the minimal effective dose of memantine in the composition causing a maximal anticataleptic effect was determined.

[5] = tested on: reflex of tail flicking; test: Tail-flick test (analgesic effect); format: in vivo, rats; details: drug alone
Procedure: (§3) For these studies, solutions of the composition of the invention were used, which. were prepared using distilled water immediately before administration. The solutions were administered either orally (IG), by a rigid metal probe into the cardiac section of the stomach at a total amount of 0.8 ml, or intramuscularly (IM) at an amount of 0.2 ml, 30 min before testing.
The analgesic effect of the components was estimated by an extension of the latent period of the reflex of tail flicking in the “tail-flick” test [Woolf C. J., Barret G. D., Mitchel D., Myers R. A. (1977) Eur. J. Pharmacol. 45(3);311-314] and of the reflex of hind leg flicking in the hyperalgesia test [Coderre T. J., Melzack R. Brain Res. (1987) 404(1-2):95-106].
For the “tail-flick” test, hyperalgesic rats were selected (latent period of tail flicking on placing into water with a temperature of 51° C. was 3-4 sec).

[6] = tested on: low-active rats; test: Porsolt's test, low-active rats; format: in vivo; details: drug alone
Procedure: (§4) Antidepressive effects was studied by Porsolt's test [Porsolt R. D., Anton G., Blavet N., Jalfre M. Eur. J. Pharmacol.(1978), 47(4):379-91]. For each rat under study, the total immobilization time was determined during 10 min of forced swimming in a glass vessel at a water temperature of 22° C. The animals were subdivided into three groups according to their immobilization time: highly-, medium- and low-active (immobilization time below 80 sec. 100-140 sec and above 150 sec, respectively).
(§5) I. N., Kryzhanovskii G. N. Biull. Eksp. Biol. Med. (1995) 120(8): 160-3] 30 min before testing at a dose of 15 mg/kg. […] (60 min before a repeated examination in Porsolt's test), and also to low-active rats 30 min. before a repeated study in Porsolt's test.
(§6) To determine the degree of potentiation of the effect of antidepressants, their minimal effective dose within the compositions, which caused a maximal antidepressive effect (immobilization time—below 80 s) in low-active rats and in rats with MPTP-depression was determined.

[7] = tested on: rats with MPTP-depression; test: Porsolt's test, rats with MPTP depression (MPTP 15 mg/kg IM); format: in vivo; details: drug alone
Procedure: as §4, §5, §6

[8] = tested on: behavioral depression caused by a toxic dose of MPTP; test: Forced swimming test after a toxic dose of MPTP (30 mg/kg IM); format: in vivo, rats
Procedure: In a forced swimming test, the ability of amitriptyline and its compositions to eliminate the effect of toxic doses of MPTP was studied. Single administration of high MPTP doses (30 mg/kg) causes acute suppression of motor activity (akinesis), catalepsy, and muscular rigidity. Antidepressants reduce behavioral depression caused by a single administration of toxic doses of MPTP. The behavioral depression was studied in a forced swimming test of a group of active rats after the administration of a toxic dose of MPTP (30 mg/kg IM). Swimming duration (maximal swimming duration—10 min) and the time of forced immobilization during the first 5 min of swimming (under the condition that swimming duration exceeds 5 min) was estimated in the forced swimming test 30 min after MPTP administration. Drugs were administered IM or IG 30 min before MPTP administration.
To estimate the potentiation of the effects of amitriptyline (its ability to reduce toxic effects of MPTP), the minimal effective dose of amitriptyline in the composition, which increased swimming time up to 9-10 min and reduced immobilization time during the first 5 min of swimming down to 20-30 sec was determined.

[9] = tested on: pentylenetetrazole seizures; details: diazepam alone, pentylenetetrazole 70 mg/kg
Procedure: as §3
Anticonvulsive effects of drugs and their compositions was studied on the model of pentetrazole seizures [Parsons C. G . Quack G., Bresink I., Baran L., Przegalinski F., Kostowski. W., Krzascik P., Hartmann. S., Danysz W. Neuropharmacology (1995) 34(10):1239-1258).
To estimate the potentiation of diazepam effect, its minimal effective dose in the composition preventing clonico-tonic and clonic seizures in 80% of rats was determined.

[10] = IG, amitriptyline 30 mg/kg, alone or with phenylephrine 0.004 mg/kg
[11] = IM, amitriptyline 30 mg/kg, alone or with phenylephrine 0.002 mg/kg (text b94: 0.003)

O=C(CCCN1CCC(O)(c2ccc(Cl)cc2)CC1)c1ccc(F)cc1 [Haloperidol, haloperidol]
Minimal effective dose of haloperidol completely preventing phenaminic stereotypy in 80% of rats ([1]; IG): 0.18 ± 0.022 mg/kg | Minimal effective dose of haloperidol completely preventing phenaminic stereotypy in 80% of rats ([1]; IG, listed as haloperidol): 0.18 mg/kg | Minimal effective dose of haloperidol completely preventing phenaminic stereotypy in 80% of rats ([1]; IM): 0.15 ± 0.017 mg/kg | Minimal effective dose of haloperidol completely preventing phenaminic stereotypy in 80% of rats ([1]; IM, listed as haloperidol): 0.15 mg/kg | Minimal effective dose of haloperidol completely preventing MK-toxicity (MK-801 0.4 mg/kg IM) ([2]; IG): > 1 mg/kg | Minimal effective dose of haloperidol completely preventing MK-toxicity (MK-801 0.4 mg/kg IM) ([2]; IG, listed as haloperidol): > 1 mg/kg | Minimal effective dose of haloperidol completely preventing MK-toxicity (MK-801 0.4 mg/kg IM) ([2]; IM): > 1 mg/kg | Minimal effective dose of haloperidol completely preventing MK-toxicity (MK-801 0.4 mg/kg IM) ([2]; IM, listed as haloperidol): > 1 mg/kg

CC(N)Cc1ccccc1 (centres unmarked) [Phenamine, phenamine]
Dose of phenamine causing the same behavioral stereotypy as phenamine 10 mg/kg IM ([3]; IG): 20.2 ± 2.3 mg/kg | Dose of phenamine causing the same behavioral stereotypy as phenamine 10 mg/kg IM ([3]; IG, listed as phenamine): 20 mg/kg | Dose of phenamine causing the same behavioral stereotypy as phenamine 10 mg/kg IM ([3]; IM): 10.0 ± 1.1 mg/kg | Dose of phenamine causing the same behavioral stereotypy as phenamine 10 mg/kg IM ([3]; IM, listed as phenamine): 10 mg/kg

CC12CC3CC(C)(C1)CC(N)(C3)C2 [Memantine, memantine]
Minimal effective dose of memantine eliminating catalepsy (immobilization time on an inclined grid below 40 seconds), haloperidol 1 mg/kg ([4]; IG): 11.5 mg/kg and 11.5 ± 1.2 mg/kg | Minimal effective dose of memantine eliminating catalepsy (immobilization time on an inclined grid below 40 seconds), haloperidol 3 mg/kg ([4]; IG): > 16.0 mg/kg | Minimal effective dose of memantine eliminating catalepsy (immobilization time on an inclined grid below 40 seconds), haloperidol 3 mg/kg ([4]; IG, listed as memantine): > 16 mg/kg | Minimal effective dose of memantine eliminating catalepsy (immobilization time on an inclined grid below 40 seconds), haloperidol 1 mg/kg ([4]; IM): 7.5 ± 0.7 mg/kg | Minimal effective dose of memantine eliminating catalepsy (immobilization time on an inclined grid below 40 seconds), haloperidol 3 mg/kg ([4]; IM): > 15.0 mg/kg | Minimal effective dose of memantine eliminating catalepsy (immobilization time on an inclined grid below 40 seconds), haloperidol 3 mg/kg ([4]; IM, listed as memantine): > 15 mg/kg | Minimal effective dose of memantine eliminating catalepsy (immobilization time on an inclined grid below 40 seconds), haloperidol 1 mg/kg ([4]; IM, listed as memantine): 7.5 mg/kg | Immobilization time of rats on an inclined grid, catalepsy caused by haloperidol 3 mg/kg ([4]; memantine 15 mg/kg IM): 60 to 70 s | Immobilization time of rats on an inclined grid, catalepsy caused by haloperidol 3 mg/kg ([4]; memantine 16 mg/kg IG): 60 to 70 s

Cc1c(N(C)CS(=O)(=O)[O-])c(=O)n(-c2ccccc2)n1C.[Na+] [Dipyrone]
Minimal effective dose of the analgesic causing maximal analgesia in tail-flick test (latent period of tail flicking reflex more than 30 sec) ([5]; IG): 20 mg/kg and 20 ± 2.3 mg/kg

CNCCC(Oc1ccc(C(F)(F)F)cc1)c1ccccc1 (centres unmarked) [Fluoxetine]
Minimal effective dose of the antidepressant causing a maximal antidepressive effect (immobilization time below 80 sec), low-active rats ([6]; IG): 5.5 mg/kg and 5.5 ± 0.7 mg/kg | Minimal effective dose of the antidepressant causing a maximal antidepressive effect (immobilization time below 80 sec), low-active rats ([6]; IM): 10.6 mg/kg and 10.6 ± 1.2 mg/kg | Minimal effective dose of the antidepressant causing a maximal antidepressive effect (immobilization time below 80 sec), highly active rats with MPTP depression ([7]; IM): 16.2 mg/kg and 16 ± 2.1 mg/kg

CN(C)CCC=C1c2ccccc2CCc2ccccc21 [Amitriptyline, amitriptyline]
Duration of forced swimming until drowning 30 min after MPTP 30 mg/kg (maximal recorded time 600 seconds) [8, 10]: 340 s and 340 ± 37 s | Immobilization time during the first 5 minutes of forced swimming, 30 min after MPTP 30 mg/kg [8, 10]: 78 s and 78 ± 8.5 s | Duration of forced swimming until drowning 30 min after MPTP 30 mg/kg (maximal recorded time 600 seconds) ([8]; IM, amitriptyline 20 mg/kg): 220 ± 25 s | Duration of forced swimming until drowning 30 min after MPTP 30 mg/kg (maximal recorded time 600 seconds) [8, 11]: 410 s and 410 ± 46 s | Immobilization time during the first 5 minutes of forced swimming, 30 min after MPTP 30 mg/kg [8, 11]: 61 s and 61 ± 6.3 s | Minimal effective dose of the antidepressant causing a maximal antidepressive effect (immobilization time below 80 sec), low-active rats ([6]; IG): 2.0 ± 0.24 mg/kg | Minimal effective dose of the antidepressant causing a maximal antidepressive effect (immobilization time below 80 sec), low-active rats ([6]; IG, listed as amitriptyline): 2 mg/kg | Minimal effective dose of the antidepressant causing a maximal antidepressive effect (immobilization time below 80 sec), low-active rats ([6]; IM): 5.2 ± 0.6 mg/kg | Minimal effective dose of the antidepressant causing a maximal antidepressive effect (immobilization time below 80 sec), low-active rats ([6]; IM, listed as amitriptyline): 5.0 mg/kg | Minimal effective dose of the antidepressant causing a maximal antidepressive effect (immobilization time below 80 sec), highly active rats with MPTP depression ([7]; IG): 2.5 ± 0.5 mg/kg | Minimal effective dose of the antidepressant causing a maximal antidepressive effect (immobilization time below 80 sec), highly active rats with MPTP depression ([7]; IG, listed as amitriptyline): 2.5 mg/kg | Minimal effective dose of the antidepressant causing a maximal antidepressive effect (immobilization time below 80 sec), highly active rats with MPTP depression ([7]; IM): 7.0 ± 0.8 mg/kg | Minimal effective dose of the antidepressant causing a maximal antidepressive effect (immobilization time below 80 sec), highly active rats with MPTP depression ([7]; IM, listed as amitriptyline): 7.2 mg/kg

CN1CC[C@]23c4c5ccc(O)c4O[C@H]2[C@@H](O)C=C[C@H]3[C@H]1C5 [Morphine, morphine]
Minimal effective dose of the analgesic causing maximal analgesia in tail-flick test (latent period of tail flicking reflex more than 30 sec) ([5]; IG): 3 ± 0.35 mg/kg | Minimal effective dose of the analgesic causing maximal analgesia in tail-flick test (latent period of tail flicking reflex more than 30 sec) ([5]; IG, listed as morphine): 3 mg/kg | Minimal effective dose of the analgesic causing maximal analgesia in tail-flick test (latent period of tail flicking reflex more than 30 sec) ([5]; IM): 3.0 ± 0.37 mg/kg | Minimal effective dose of the analgesic causing maximal analgesia in tail-flick test (latent period of tail flicking reflex more than 30 sec) ([5]; IM, listed as morphine): 3 mg/kg

CN1C(=O)CN=C(c2ccccc2)c2cc(Cl)ccc21 [Diazepam]
Minimal dose of diazepam preventing clonico-tonic pentylenetetrazol seizures in 80% of rats ([9]; IG): 2.5 mg/kg and 2.5 ± 0.3 mg/kg | Minimal dose of diazepam preventing clonico-tonic pentylenetetrazol seizures in 80% of rats ([9]; IM): 6.7 mg/kg and 6.7 ± 0.7 mg/kg
